Drawing on PubChem BioAssay (NCI), this text covers GI50 and TGI for 8 molecules.

Some test systems named below: BT-549 breast; HOP-92 NSCLC; HT29 colon; MALME-3M melanoma; MCF7 breast; MDA-MB-231 breast; MOLT-4 leukemia; NCI-H226 lung; NCI-H460 lung; UACC-257 melanoma.
Common to all, as to assay: inhibition of tumour cell growth, NCI panel, 48 h

Values joined by “and” are separate entries in the source; they are usually repeats but may differ in a detail not shown here. Equal entries are not always repeated.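 These data come from cells grown in 96-well plates and exposed to compound for 48 hours at five concentrations. Here, GI50 denotes the concentration required for 50% inhibition of growth. TGI marks complete inhibition of growth.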

For the molecule `Cn1c([N+](=O)[O-])cnc1C=C1C(=O)c2ccccc2C1=O`, the GI50 is 3.86 µM with BT-549 breast; 1.65 µM with HOP-92 NSCLC; 7.29 µM in the experiment on HT29 colon; 3.44 µM with MALME-3M melanoma; 3.44 µM in the experiment with MCF7 breast; 2.72 µM in the experiment with MDA-MB-231 breast. Also, the GI50 is 3.68 µM in the experiment with MOLT-4 leukemia, 13.1 µM in the experiment on NCI-H226 lung, 7.1 µM in the experiment on NCI-H460 lung and 3.12 µM in the experiment with UACC-257 melanoma. Further, the TGI in the experiment with BT-549 breast came to 12.8 µM; in the experiment on HOP-92 NSCLC, 6.1 µM; in the experiment with HT29 colon, 25.3 µM; in the experiment with MALME-3M melanoma, 11.6 µM; with MCF7 breast, 16.2 µM; in the experiment on MDA-MB-231 breast, 10.1 µM. For the same molecule, the TGI with MOLT-4 leukemia amounted to 17.6 µM; with NCI-H226 lung, 47.4 µM; with NCI-H460 lung, 22 µM; in the experiment on UACC-257 melanoma, 14.7 µM.

Regarding `Cc1nn(-c2ccc(Cl)cc2)c2ncnc(N/N=C/c3ccccc3O)c12`, the GI50 with BT-549 breast was 1.31 µM and 0.57 µM; in the experiment on HOP-92 NSCLC, 1.11 µM and 0.714 µM; in the experiment on HT29 colon, 2.43 µM and 1.62 µM; in the experiment with MALME-3M melanoma, 1.19 µM and 0.508 µM; in the experiment with MCF7 breast, 0.887 µM and 0.399 µM; in the experiment on MDA-MB-231 breast, 0.694 µM and 0.375 µM. For the same molecule, the GI50 with MOLT-4 leukemia was 0.518 µM and 0.326 µM; with NCI-H226 lung it was 3.86 µM and 2.55 µM; with NCI-H460 lung, 0.375 µM and 0.347 µM; in the experiment with UACC-257 melanoma it was 2.68 µM and 1.31 µM. Further, the TGI in the experiment on BT-549 breast was 57.9 µM and > 100 µM; with HOP-92 NSCLC, 34.6 µM and 16.3 µM; in the experiment with HT29 colon, greater than 100 µM; in the experiment with MALME-3M melanoma it was 9.56 µM and 7.85 µM; with MCF7 breast it was greater than 100 µM; in the experiment with MDA-MB-231 breast, greater than 65.3 µM. For the same molecule, the TGI with MOLT-4 leukemia was greater than 100 µM; in the experiment with NCI-H226 lung it was 40.7 µM and > 29.5 µM; with NCI-H460 lung, 3.14 µM and 5.67 µM; with UACC-257 melanoma it was 16.1 µM and 39.3 µM.

For the molecule `Cc1ccc2c(-c3ccnc(Nc4ccc5c(c4)OCCO5)n3)c(-c3ccc(C(F)(F)F)cc3)nn2n1`, the GI50 in the experiment with BT-549 breast is 4.45 µM; in the experiment on HOP-92 NSCLC it was 1.4 µM; in the experiment with HT29 colon it was 4.42 µM; with MALME-3M melanoma, greater than 25 µM; in the experiment with MCF7 breast, 5.66 µM; with MDA-MB-231 breast, 1.25 µM. For the same molecule, the GI50 in the experiment on MOLT-4 leukemia is 6.89 µM; in the experiment with NCI-H226 lung it was 11.5 µM; in the experiment with NCI-H460 lung, 5.66 µM; with UACC-257 melanoma, 4.21 µM. For the same molecule, the TGI in the experiment with BT-549 breast is greater than 25 µM; in the experiment with HOP-92 NSCLC it was 19.2 µM; in the experiment with HT29 colon, greater than 25 µM; with MALME-3M melanoma, greater than 25 µM; in the experiment with MCF7 breast it was greater than 25 µM; with MDA-MB-231 breast, greater than 25 µM. Moreover, the TGI in the experiment with MOLT-4 leukemia is greater than 25 µM; with NCI-H226 lung it was greater than 25 µM; in the experiment with NCI-H460 lung it was greater than 25 µM; in the experiment with UACC-257 melanoma it was 13.2 µM.

As to `CNC(=O)c1ncccc1Nc1nc(Nc2cc3c(cc2OC)CCCN3C(=O)CN(C)C)nc2[nH]ccc12`, the GI50 is 2.7 µM with BT-549 breast; 0.049 µM in the experiment on HOP-92 NSCLC; 0.0491 µM in the experiment with HT29 colon; 3.65 µM in the experiment on MALME-3M melanoma; 0.073 µM in the experiment with MCF7 breast; 1.58 µM in the experiment on MDA-MB-231 breast. The GI50 in the experiment with MOLT-4 leukemia is 1.05 µM; in the experiment on NCI-H226 lung it was 1.91 µM; with NCI-H460 lung, 0.613 µM; in the experiment on UACC-257 melanoma, 0.395 µM. In addition, the TGI is 6.04 µM in the experiment with BT-549 breast; 1.98 µM in the experiment with HOP-92 NSCLC; 1.25 µM in the experiment on HT29 colon; 7.84 µM in the experiment with MALME-3M melanoma; 2.73 µM in the experiment with MCF7 breast; 5.3 µM in the experiment on MDA-MB-231 breast. Further, the TGI in the experiment with MOLT-4 leukemia came to 5.76 µM; in the experiment on NCI-H226 lung it was 5.78 µM; with NCI-H460 lung it was 3.77 µM; in the experiment with UACC-257 melanoma it was 4.71 µM.

Take `COCC([C@@H](O)C(O)C(=O)NCC[C@@H](C)c1nc(/C=C/CC2OC3(C[C@H](O)C2C)OC(C(C[C@H](O)C(C)[C@H](O)C(C)/C=C(C)/C(C)=C/C=C/C(C)=C/C#N)OC)[C@@H](OP(=O)(O)O)C3(C)C)co1)N(C)C` (some centres undefined): the TGI was found to be 0.000312 µM in the experiment with BT-549 breast; 0.000316 µM with HOP-92 NSCLC; 0.000297 µM in the experiment with HT29 colon; 0.000316 µM with MALME-3M melanoma; 0.000347 µM in the experiment on MCF7 breast; 0.000562 µM in the experiment with MDA-MB-231 breast. The TGI is 0.00248 µM in the experiment with MOLT-4 leukemia, 0.000282 µM in the experiment with NCI-H226 lung, 0.000272 µM in the experiment with NCI-H460 lung and 0.00232 µM in the experiment with UACC-257 melanoma.

Turning to `Cc1cc(O)c2c(c1)C(=O)C=CC2=O`, the GI50 in the experiment with BT-549 breast is 15.5 µM and 6.9 µM; with HOP-92 NSCLC, 2.33 µM and 2.51 µM; in the experiment with MALME-3M melanoma, 10.2 µM and 1.86 µM; in the experiment with UACC-257 melanoma, 9.95 µM. Moreover, the TGI in the experiment on BT-549 breast was 30.3 µM and 21 µM; in the experiment on HOP-92 NSCLC it was 5.15 µM and 7.69 µM; with HT29 colon, 12.3 µM and 21.3 µM; with MALME-3M melanoma, 23.2 µM and 8.39 µM; in the experiment on MCF7 breast, 11.3 µM and 21.8 µM; in the experiment with MDA-MB-231 breast, 25.3 µM and 18.6 µM. Moreover, the TGI with MOLT-4 leukemia was 1.71 µM and 1.61 µM; with NCI-H226 lung it was 42.4 µM and 39.2 µM; in the experiment with NCI-H460 lung, 45.5 µM and 31.1 µM; in the experiment on UACC-257 melanoma, 11.3 µM and 27.8 µM.

On to `CC1=C(C(=O)Nc2ccccc2)C(c2ccc(N(C)C)cc2)C(C(=O)Nc2ccccc2)=C(C)N1`, for which the TGI in the experiment on BT-549 breast was greater than 88.3 µM; in the experiment with HOP-92 NSCLC, greater than 94.6 µM; with HT29 colon, greater than 75.8 µM; in the experiment on MALME-3M melanoma it was 39.6 µM; in the experiment with MCF7 breast, greater than 100 µM; in the experiment on MDA-MB-231 breast it was greater than 100 µM. Moreover, the TGI in the experiment on MOLT-4 leukemia was greater than 96.6 µM; in the experiment with NCI-H226 lung, greater than 100 µM; with NCI-H460 lung, greater than 100 µM; in the experiment with UACC-257 melanoma, greater than 100 µM.

For the molecule `OC1(c2ccc(Cl)c(C(F)(F)F)c2)CCN(CCCC(c2ccc(F)cc2)c2ccc(F)cc2)CC1`, the GI50 is 1.09 µM in the experiment with BT-549 breast; 0.448 µM with HOP-92 NSCLC; 0.739 µM in the experiment with HT29 colon; 0.934 µM in the experiment with MALME-3M melanoma; 0.796 µM in the experiment on MCF7 breast; 0.795 µM with MDA-MB-231 breast. Further, the GI50 with MOLT-4 leukemia was 1.03 µM; in the experiment on NCI-H226 lung it was 0.857 µM; with NCI-H460 lung it was 1.23 µM; in the experiment on UACC-257 melanoma, 0.826 µM. In addition, the TGI worked out at 2.1 µM in the experiment on BT-549 breast; 1.17 µM in the experiment on HOP-92 NSCLC; 1.47 µM with HT29 colon; 1.74 µM in the experiment with MALME-3M melanoma; 1.47 µM in the experiment on MCF7 breast; 1.52 µM with MDA-MB-231 breast. Further, the TGI in the experiment on MOLT-4 leukemia amounted to 2.38 µM; in the experiment on NCI-H226 lung, 1.81 µM; with NCI-H460 lung, 9.05 µM; with UACC-257 melanoma it was 1.51 µM.
